These results are taken from ChEMBL document CHEMBL5727152, “Ethyldiamine orexin receptor antagonists” (2018).

The target in this assay is T1, Orexin receptor type 2 (Homo sapiens, UniProt O43614).
T1 sequence (O43614 whole entry): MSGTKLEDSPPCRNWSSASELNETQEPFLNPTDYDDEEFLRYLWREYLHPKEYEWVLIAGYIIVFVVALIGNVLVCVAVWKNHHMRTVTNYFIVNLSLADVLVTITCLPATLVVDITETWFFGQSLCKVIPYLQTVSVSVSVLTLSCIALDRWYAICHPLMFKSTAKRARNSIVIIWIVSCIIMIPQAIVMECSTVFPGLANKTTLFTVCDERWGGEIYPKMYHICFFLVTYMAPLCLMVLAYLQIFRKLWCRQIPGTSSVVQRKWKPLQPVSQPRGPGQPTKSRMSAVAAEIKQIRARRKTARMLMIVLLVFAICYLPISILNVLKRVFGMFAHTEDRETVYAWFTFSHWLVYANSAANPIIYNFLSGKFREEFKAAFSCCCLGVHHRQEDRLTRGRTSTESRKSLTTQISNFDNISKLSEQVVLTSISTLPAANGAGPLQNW
Description: FLIPR Ca2+ Flux Assay: In a typical experiment the OX1 and OX2 receptor antagonistic activity of the compounds of the present invention was determined in accordance with the following experimental method. For intracellular calcium measurements, Chinese hamster ovary (CHO) cells expressing the rat orexin-1 receptor or the human orexin-2 receptor, are grown in Iscove's modified DMEM containing 2 mM L-glutamine, […], 1% hypoxanthine-thymidine supplement, 100 U/ml penicillin, 100 μg/ml streptomycin and 10% heat-inactivated fetal calf serum (FCS). The cells are seeded at 20,000 cells/well into Becton-Dickinson black 384-well clear bottom sterile plates coated with poly-D-lysine. All reagents were from GIBCO-Invitrogen Corp. The seeded plates are incubated overnight at 37° C. and 5% CO2. Ala-6,12 human orexin-A as the agonist is prepared as a 1 mM stock solution in 1% bovine serum albumin (BSA) and diluted in assay buffer (HBSS containing 20 mM HEPES, 0.1% BSA and 2.5 mM probenecid, pH7.4) for use in the assay at a final concentration of 70 pM. Test compounds are prepared as 10 mM stock solution in DMSO, then diluted in 384-well plates, first in DMSO, then assay buffer. On the day of the assay, cells are washed 3 times with 100 μl assay buffer and then incubated for 60 min (37° C., 5% CO2) in 60 μl assay buffer containing 1 μM Fluo-4AM ester, 0.02% pluronic acid, and 1% BSA. […]. Type of assay: cell-based.

Structures are written as SMILES.

A word on the IC50: it is the concentration that gives 50% inhibition. With `CN(CCN(CC(F)(F)F)C(=O)c1ccccc1-n1nccn1)c1cc(C#N)ccn1`, the IC50 turned out to be 113 nM.
